Converted amounts (≈) assume the structure as drawn. Read-outs that look alike come from different tables or passages of the source. Blank lines part the entries; values can stand above or below the compound they belong to.
Columns and labels:
Bovine S. aureus = experiment: Susceptibility of isolate panel (MIC50, MIC90, range); type: cell-based, Staphylococcus aureus
Excerpt: (§1) Reference strains for this study (S. aureus ATCC 29213, ATCC 29740 [bovine mastitis strain Newbould], S. epidermidis ATCC 12228, E. coli ATCC 35695, E. faecalis ATCC 29212) were obtained from the American Type Culture Collection (ATCC, Rockville, MD). S. aureus strains CMRSA-10 and CMRSA-2 were obtained from the Laboratoire de santé publique du Québec (LSPQ, Sainte-Anne-de-Bellevue, QC, Canada) and are Canadian CA-MRSA USA-300 and HA-MRSA USA-100 clones, respectively. The strain E. coli imp4213 (lptD), used as a control in MIC assays, is a derivative of E. coli ATCC 35695 (E. coli MC4100) with an increased membrane permeability. […] Other MRSA strains used in this study are clinical isolates of human origin obtained from the microbiology laboratory of the Centre Hospitalier Universitaire de Sherbrooke (CHUS, Sherbrooke, QC, Canada). Bovine mastitis strains (S. aureus, S. chromogenes, S. haemolyticus, S. hominis, S. simulans) were obtained from the Canadian Bovine Mastitis and Milk Quality Research Network (CBRQMN, St-Hyacinthe, QC, Canada). Among these strains, S. aureus 2117 is a high producer of biofilm and was used in the biofilm-eradication assay. S. epidermidis isolates were provided by Centre de Recherche en Infectiologie (CRI) de Québec (Québec, QC, Canada).
(§2) The antibacterial activity of the most promising compound, PC206, was also evaluated against larger groups of clinical isolates of human and animal origin. The MIC50 and MIC90 values represented the concentrations of drug required to inhibit the growth of 50% and 90% of the bacterial strains tested, respectively.

MRSA = experiment: as above; type: cell-based, Staphylococcus aureus
Excerpt: as §1, §2

S. haemolitycus = experiment: as above; type: cell-based, S. haemolyticus
Excerpt: as §1, §2

S. chromogenes = experiment: as above; type: cell-based
Excerpt: as §1, §2

S. epidermidis = experiment: as above; type: cell-based
Excerpt: as §1, §2

S. hominis = experiment: as above; type: cell-based
Excerpt: as §1, §2

S. simulans = experiment: as above; type: cell-based
Excerpt: as §1, §2

[1] = system: Staphylococcus aureus CMRSA-10; experiment: Broth microdilution MIC; type: cell-based; conditions: CMRSA10, read-out: Broth Microdilution MIC
Excerpt: as §1

[2] = system: Staphylococcus aureus CMRSA-2; experiment: Broth microdilution MIC; type: cell-based; conditions: CMRSA2, read-out: Broth Microdilution MIC
Excerpt: as §1

[3] = system: Escherichia coli ΔlptD4213; experiment: microbe, parasite or virus in culture; type: cell-based; conditions: read-out: Broth Microdilution MIC
Excerpt: as §1

[4] = system: Bacillus subtilis xpt-lacZ; experiment: Broth microdilution MIC; type: cell-based; conditions: read-out: Broth Microdilution MIC
[5] = system: S. aureus bovine strain 2117 embedded in preformed biofilm; experiment: Biofilm-eradication test (MBEC assay); type: cell-based, Staphylococcus aureus; conditions: concentrations up to 512 µg/mL
Description: The viability of bacteria in preformed biofilms treated with PC206 was evaluated using the MBEC assay™ system (formerly the Calgary Biofilm Device). The device consists of a plastic lid with 96 pegs and a 96-well plate. […] Plates were incubated at 35 °C for 24 h with agitation (120 rpm). […] The pegs were washed three times with PBS and the biofilm was sonicated for 10 min, and then transferred into a new 96-well base plate. The 96-well plate was centrifuged for 5 min at 180 g to recover the detached bacteria.

[6] = system: Staphylococcus aureus ATCC 29213; experiment: Broth microdilution MIC; conditions: ATCC29213, read-out: Broth Microdilution MIC
[7] = system: Staphylococcus epidermidis ATCC 12228; experiment: Broth microdilution MIC; conditions: ATCC12228, read-out: Broth Microdilution MIC
[8] = system: Enterococcus faecalis ATCC 29212; experiment: Broth microdilution MIC; conditions: ATCC29212, read-out: Broth Microdilution MIC
[9] = system: Escherichia coli ATCC 35695; experiment: Broth microdilution MIC; conditions: ATCC35695, read-out: Broth Microdilution MIC

MIC50 (Bovine S. aureus; Bovine S. aureus, 48 isolates): 0.25 µg/mL (≈ 0.608 µM)
MIC90 (Bovine S. aureus; Bovine S. aureus, 48 isolates): 0.5 µg/mL (≈ 1.22 µM)
MIC Range (Bovine S. aureus; Bovine S. aureus, 48 isolates): 0.12 to 1 µg/mL
MIC50 (MRSA; 42 isolates): >64 µg/mL
MIC90 (MRSA; 42 isolates): >64 µg/mL
MIC50 (S. chromogenes; S. chromogenes, 5 isolates): 0.06 µg/mL (≈ 0.146 µM)
MIC90 (S. chromogenes; S. chromogenes, 5 isolates): 1 µg/mL (≈ 2.43 µM)
MIC Range (S. chromogenes; S. chromogenes, 5 isolates): 0.06 to 2 µg/mL
MIC50 (S. epidermidis; S. epidermidis, 10 isolates): 0.12 µg/mL (≈ 0.292 µM)
MIC90 (S. epidermidis; S. epidermidis, 10 isolates): >16 µg/mL
MIC50 (S. hominis; S. hominis, 10 isolates): 1 µg/mL (≈ 2.43 µM)
MIC90 (S. hominis; S. hominis, 10 isolates): >16 µg/mL
MIC50 (S. simulans; S. simulans, 5 isolates): 0.12 µg/mL (≈ 0.292 µM)
MIC90 (S. simulans; S. simulans, 5 isolates): 0.25 µg/mL (≈ 0.608 µM)
MIC Range (S. simulans; S. simulans, 5 isolates): 0.12 to 0.25 µg/mL
Compound: CC[C@@H]1CCN[C@H](C(=O)N[C@@H]([C@H]2O[C@H](SC)[C@H](O)[C@@H](O)[C@H]2O)[C@H](C)Cl)C1 [PIR, pirlimycin]
MIC50 (S. haemolitycus; S. haemolitycus, 10 isolates): 0.25 µg/mL (≈ 0.608 µM)
MIC90 (S. haemolitycus; S. haemolitycus, 10 isolates): >16 µg/mL

Compound: CN[C@H](CC(C)C)C(=O)N[C@H]1C(=O)N[C@@H](CC(N)=O)C(=O)N[C@H]2C(=O)N[C@H]3C(=O)N[C@H](C(=O)N[C@H](C(=O)O)c4cc(O)cc(O)c4-c4cc3ccc4O)[C@H](O)c3ccc(c(Cl)c3)Oc3cc2cc(c3O[C@@H]2O[C@H](CO)[C@@H](O)[C@H](O)[C@H]2O[C@H]2C[C@](C)(N)[C@H](O)[C@H](C)O2)Oc2ccc(cc2Cl)[C@H]1O [VAN, vancomycin]
MIC [1]: 1 µg/mL (≈ 0.69 µM)
MIC [2]: 1 µg/mL (≈ 0.69 µM)
MIC [3]: 1 µg/mL (≈ 0.69 µM)
MIC [4]: 0.25 µg/mL (≈ 0.173 µM)
MIC Range (Bovine S. aureus; Bovine S. aureus, 48 isolates): 0.25 to 1 µg/mL
MIC50 (Bovine S. aureus; Staphylococcus aureus): 0.5 µg/mL (≈ 0.345 µM)
MIC90 (Bovine S. aureus; Staphylococcus aureus): 0.5 µg/mL (≈ 0.345 µM)
MIC Range (MRSA; 42 isolates): 0.5 to 4 µg/mL
MIC50 (MRSA; Staphylococcus aureus): 1 µg/mL (≈ 0.69 µM)
MIC90 (MRSA; Staphylococcus aureus): 4 µg/mL (≈ 2.76 µM)
MIC Range (S. haemolitycus; S. haemolitycus, 10 isolates): 0.25 to 4 µg/mL
MIC50 (S. haemolitycus; Staphylococcus haemolyticus): 2 µg/mL (≈ 1.38 µM)
MIC90 (S. haemolitycus; Staphylococcus haemolyticus): 4 µg/mL (≈ 2.76 µM)
MIC50 (S. chromogenes): 0.5 µg/mL (≈ 0.345 µM)
MIC90 (S. chromogenes): 0.5 µg/mL (≈ 0.345 µM)
MIC Range (S. chromogenes; S. chromogenes, 5 isolates): 0.5 µg/mL (≈ 0.345 µM)
MIC Range (S. epidermidis; S. epidermidis, 10 isolates): 0.5 to 1 µg/mL
MIC50 (S. epidermidis; Staphylococcus epidermidis): 1 µg/mL (≈ 0.69 µM)
MIC90 (S. epidermidis; Staphylococcus epidermidis): 1 µg/mL (≈ 0.69 µM)
MIC Range (S. hominis; S. hominis, 10 isolates): 0.25 to 1 µg/mL
MIC50 (S. hominis; Staphylococcus hominis): 0.5 µg/mL (≈ 0.345 µM)
MIC90 (S. hominis; Staphylococcus hominis): 0.5 µg/mL (≈ 0.345 µM)
MIC Range (S. simulans; S. simulans, 5 isolates): 0.5 µg/mL (≈ 0.345 µM)
MIC50 (S. simulans; Staphylococcus simulans): 0.5 µg/mL (≈ 0.345 µM)
MIC90 (S. simulans; Staphylococcus simulans): 0.5 µg/mL (≈ 0.345 µM)
Effect on viable counts in preformed biofilm [5]: did not impact viable counts
MIC [6]: 0.5 µg/mL (≈ 0.345 µM)
MIC [7]: 1 µg/mL (≈ 0.69 µM)
MIC [8]: 4 µg/mL (≈ 2.76 µM)
MIC [9]: > 128 µg/mL

Reference: publication PMC10451377, “Rationally Designed Pyrimidine Compounds: Promising Novel Antibiotics for the Treatment of Staphylococcus aureus-Associated Bovine Mastitis” (Antibiotics, 2023)
